Data taken from US20140162308A1, “DEVICE AND METHOD FOR I[…] AND COUNTING MICROBES AND DETERMINING ANTIMICROBIAL SENSITIVITY” (Texas State University, priority 2011, published 2014).

System: E. Coli B
Assay: Antimicrobial sensitivity test: resistance signature of the microbial sample after adding the antibiotic
Assay type: cell-based
Conditions: 0.9 mL of 10^3 CFU/mL E. Coli B in LB Broth + 0.1 mL antibiotic, room temperature; slope of control samples remains negative; FIGS. 7A-7D
Description: FIGS. 7A-7D depict signatures of microbial sample of 0.9 mL of a concentration of 10^3 CFU/mL of two-hour E. Coli B treated with 0.1 mL of antibiotics or antimicrobials and control samples in the absence thereof. What is common to all FIGS. 7A-7D is the slope for signatures with antibiotics or antimicrobials become positive, i.e., the resistance component of total impedance of the microbial sample increases, upon addition of the antibiotic or antimicrobial. The slope of the control samples remains negative.
In further detail, a difference in the degree of the slope change for the signature can be observed. […]
An overnight bacterial culture of E. coli B with a concentration of around 10^9 cells which had attained room temperature were diluted using LB Broth which had also attained room temperature to a final concentration of 10^3 cells. 0.9 ml of this solution was then placed into one sensor well which was connected to lead #1 of a reader unit. An additional 0.9 ml of the bacteria was placed into a second sensor well which was connected to lead#2 of a reader unit. […]
An overnight bacterial culture of E. coli B with a concentration of around 10^9 cells that had attained room temperature were diluted to a final concentration of 10^3 cells. 0.9 ml of this solution was then placed into a first sensor well which was connected to lead #1 of a reader unit. […]

Cc1cc(NS(=O)(=O)c2ccc(N)cc2)no1 [sulfamethoxazole]
slope of the signature (resistance component of total impedance of the microbial sample) upon addition of the antibiotic or antimicrobial: steeper than for azithromycin
